Results: patent US20200308192A1, “NOVEL THIAZOLO[5,4-D]PYRIMIDINE DERIVATIVES AS INVERSE AGONISTS OF A2A ADENOSINE RECEPTORS” (Universita degli Studi di Ferrara, priority 2016, published 2020)
Read-outs that look alike come from different tables or passages of the source.

How the values were obtained:
[1] = molecular target: T1, human adenosine A2A receptor (Homo sapiens, UniProt P29274); test: cAMP assay in hA2A CHO cells, basal or with CGS 21680; format: cell-based; set-up: expressed in transfected cells; host or cells: CHO cells; conditions: for IC50: mean ± SEM
T1 sequence (P29274 whole entry): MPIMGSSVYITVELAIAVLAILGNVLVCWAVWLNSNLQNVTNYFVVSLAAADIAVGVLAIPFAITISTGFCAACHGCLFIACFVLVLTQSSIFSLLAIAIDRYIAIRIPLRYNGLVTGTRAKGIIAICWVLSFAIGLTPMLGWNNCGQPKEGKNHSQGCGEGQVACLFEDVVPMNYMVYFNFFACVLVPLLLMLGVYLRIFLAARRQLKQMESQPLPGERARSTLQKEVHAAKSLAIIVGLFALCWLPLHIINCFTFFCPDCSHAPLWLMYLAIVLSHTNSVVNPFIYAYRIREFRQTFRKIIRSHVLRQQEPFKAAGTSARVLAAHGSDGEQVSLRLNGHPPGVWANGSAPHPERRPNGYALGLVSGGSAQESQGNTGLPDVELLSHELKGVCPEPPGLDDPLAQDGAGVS
Experimental: For the membranes preparation the culture medium was removed, and the cells were washed with a saline phosphate-buffered solution collected with hypotonic buffer (5 mM Tris HCl, 1 mM EDTA, pH 7.4).
CHO cells transfected with the adenosine receptors were washed with a phosphate-buffered saline solution, detached with trypsin and centrifuged for 10 minutes at 200 g. […] The reaction was terminated by addition of cold 6% trichloroacetic acid (TCA). The TCA suspension was centrifuged at 2000 g for 10 minutes at 4° C. and the supernatant was extracted four times with diethyl ether with water. The final aqueous solution was tested for the cAMP levels by a competition protein binding assay with a cAMP-binding protein. The standard samples of cAMP (0-10 pmoli) were added to each test tube containing the incubation buffer (trizma base 0.1 M, aminophylline 8.0 mM, 2 mercaptoethanol 6.0 mM, pH 7.4) and [^3H]-cAMP. The binding protein previously prepared from beef adrenals, was added to the samples previously incubated at 4° C. for 150 minutes, and after the addition of charcoal were centrifuged at 2000 g for 10 min.
The statistical analysis of the data was performed using ANOVA followed by Dunnett's test. […] KH and KL were obtained by using a two sites binding model and Graph PAD Prism (San Diego, Calif., USA). The values of IC50 obtained in the cAMP assays were calculated by non-linear regression analysis using the equation for a sigmoid concentration-response curve. All data are expressed as the mean±SEM of four independent experiments each performed in duplicate for in vitro assays and n=8-10 mice/group for in vivo assays.

[2] = molecular target: T2, human adenosine A2B receptor (Homo sapiens, UniProt P29275); test: cAMP assay, inhibition of NECA-stimulated cAMP levels in hA2B CHO cells; conditions: read-out: Receptor hA2B IC50; cAMP stimulated by NECA (100 nM); mean ± SEM
T2 sequence (P29275 1-332): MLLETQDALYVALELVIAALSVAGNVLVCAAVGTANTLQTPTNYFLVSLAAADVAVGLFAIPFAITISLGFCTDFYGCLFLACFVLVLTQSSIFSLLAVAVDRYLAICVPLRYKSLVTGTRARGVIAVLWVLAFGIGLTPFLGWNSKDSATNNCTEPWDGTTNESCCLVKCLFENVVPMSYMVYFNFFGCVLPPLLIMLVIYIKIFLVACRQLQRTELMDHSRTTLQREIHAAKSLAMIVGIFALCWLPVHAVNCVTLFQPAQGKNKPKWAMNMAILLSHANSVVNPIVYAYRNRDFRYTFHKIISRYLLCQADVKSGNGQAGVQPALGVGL

[3] = molecular target: T3, human adenosine A1 receptor (Homo sapiens, UniProt P30542); test: Competition binding, [3H]-DPCPX, hA1 CHO membranes; conditions: read-out: Receptor hA1 Ki, mean ± SEM
T3 sequence (P30542 1-326): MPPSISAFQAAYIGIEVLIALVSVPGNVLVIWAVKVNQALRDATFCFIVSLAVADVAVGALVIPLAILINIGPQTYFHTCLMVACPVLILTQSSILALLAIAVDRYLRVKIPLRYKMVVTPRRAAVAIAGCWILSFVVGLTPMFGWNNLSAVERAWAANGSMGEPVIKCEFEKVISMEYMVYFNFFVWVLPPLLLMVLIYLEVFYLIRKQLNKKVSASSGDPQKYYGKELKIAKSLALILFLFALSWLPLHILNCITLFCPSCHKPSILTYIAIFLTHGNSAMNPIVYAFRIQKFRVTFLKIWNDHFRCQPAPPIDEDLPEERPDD

[4] = molecular target: T1, human adenosine A2A receptor; test: Competition binding, [3H]-ZM 241385, hA2A CHO membranes; conditions: read-out: Receptor hA2A Ki; [3H]-ZM 241385; single affinity value; mean ± SEM
[5] = molecular target: T4, human adenosine A3 receptor (Homo sapiens, UniProt P0DMS8); test: Competition binding, [125I]-ABMECA, hA3 CHO membranes; conditions: mean ± SEM
T4 construct: expressed in transfected cells; host or cells: CHO cells (membrane preparation)
T4 sequence (P0DMS8 1-318): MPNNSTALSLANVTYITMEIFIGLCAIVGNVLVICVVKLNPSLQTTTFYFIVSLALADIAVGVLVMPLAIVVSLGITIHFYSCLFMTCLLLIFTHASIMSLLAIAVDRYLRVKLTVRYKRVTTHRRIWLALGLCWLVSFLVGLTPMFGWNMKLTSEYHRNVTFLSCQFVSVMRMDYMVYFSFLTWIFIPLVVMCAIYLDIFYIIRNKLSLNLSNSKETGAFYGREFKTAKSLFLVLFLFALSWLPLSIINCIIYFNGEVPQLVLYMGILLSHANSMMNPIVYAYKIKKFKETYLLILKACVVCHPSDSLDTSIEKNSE

[6] = CGS 21680 (10 nM), read-out: IC50 cAMP, in presence of CGS 21680
[7] = CGS 21680 (10 nM), read-out: Emax cAMP, in presence of CGS 21680
[8] = basal cAMP, read-out: IC50 cAMP, in absence of CGS 21680
[9] = efficacy versus basal cAMP production, read-out: Emax cAMP, in absence of CGS 21680

Row | IC50 [1, 6] | Emax [1, 7] | IC50 [1, 8] | Emax [1, 9] | IC50 [2] | Ki [3] | Ki [4] | Ki [5] | SMILES
1 | 123 ± 11 nM | 116 ± 11% | 187 ± 16 nM | 38 ± 4% | 283 ± 27 nM | 163 ± 12 nM | 171 ± 16 nM | 381 ± 37 nM | COc1ccc(CNc2nc(N)c3nc(-c4ccco4)sc3n2)cc1 [Compound 2, 2-(furan-2-yl)-N^5-(4-methoxybenzyl)[1,3]thiazolo[5,4-d]pyrimidin-5,7-diamine]
2 | 22 ± 2 nM | 139 ± 13% | 27 ± 2 nM | 68 ± 7% | 24 ± 3 nM | 27 ± 3 nM | 20 ± 2 nM | 55 ± 4 nM | Nc1nc(NCc2cccc(O)c2)nc2sc(-c3ccco3)nc12 [Compound 4, 3-(((7-amino-2-(furan-2-yl)[1,3]thiazolo[5,4-d]pyrimidin-5-yl)amino)methyl) phenol]
3 | 1.3 ± 0.1 nM | 128 ± 11% | 0.68 ± 0.06 nM | 54 ± 5% | 95 ± 9 nM | 28 ± 3 nM | 0.42 ± 0.04 nM | 59 ± 5 nM | Nc1nc(NCc2ccccn2)nc2sc(-c3ccco3)nc12 [Compound 8, 2-(furan-2-yl)-N^5-(pyridin-2-ylmethyl)[1,3]thiazolo[5,4-d]pyrimidin-5,7-diamine]
4 |  |  |  |  | 103 ± 10 nM | 8.51 ± 0.76 nM | 0.82 ± 0.07 nM | 35 ± 4 nM | Nc1nc(NCc2cccc(F)c2)nc2sc(-c3ccco3)nc12 [Compound 9, N^5-(3-fluorobenzyl)-2-(furan-2-yl)[1,3]thiazolo[5,4-d]pyrimidin-5,7-diamine]
5 |  |  |  |  | 323 ± 28 nM | 64 ± 10 nM | 17 ± 2 nM | 35 ± 4 nM | CCCNc1nc(N)c2nc(-c3ccco3)sc2n1 [Compound 11, 2-(furan-2-yl)-N^5-propyl-[1,3]thiazolo[5,4-d]pyrimidin-5,7-diamine]
6 |  |  |  |  | 185 ± 17 nM | 41 ± 5 nM | 8.21 ± 0.78 nM | 23 ± 3 nM | CCCCNc1nc(N)c2nc(-c3ccco3)sc2n1 [Compound 12, N^5-butyl-2-(furan-2-yl)[1,3]thiazolo[5,4-d]pyrimidin-5,7-diamine]
7 | 0.41 ± 0.03 nM | 137 ± 13% | 0.36 ± 0.04 nM | 67 ± 6% | 8.96 ± 0.82 nM | 8.12 ± 0.71 nM | 0.25 ± 0.02 nM | 3.14 ± 0.29 nM | Nc1nc(NCc2ccsc2)nc2sc(-c3ccco3)nc12 [Compound 13, 2-(furan-2-yl)-N^5-(thiophen-3-ylmethyl)[1,3]thiazolo[5,4-d]pyrimidin-5,7-diamine]
8 | 18.7 ± 1.6 nM | 122 ± 10% | 15.3 ± 1.2 nM | 43 ± 4% | 33 ± 2 nM | 47 ± 4 nM | 12 ± 1 nM | 827 ± 48 nM | Nc1nc(NCc2ccncc2)nc2sc(-c3ccco3)nc12 [Compound 14, 2-(furan-2-yl)-N^5-(pyridin-4-ylmethyl)[1,3]thiazolo[5,4-d]pyrimidin-5,7-diamine]
9 | 11.3 ± 0.96 nM | 117 ± 10% | 8.27 ± 0.72 nM | 48 ± 4% | 13.2 ± 1.2 nM | 25 ± 4 nM | 5.14 ± 0.48 nM | 157 ± 14 nM | Nc1nc(NCc2cnccn2)nc2sc(-c3ccco3)nc12 [Compound 15, 2-(furan-2-yl)-N^5-(pyrazin-2-ylmethyl)[1,3]thiazolo[5,4-d]pyrimidin-5,7-diamine]
10 | 4.26 ± 0.37 nM | 121 ± 11% | 2.93 ± 0.22 nM | 56 ± 6% | 14 ± 1 nM | 5.24 ± 0.46 nM | 2.15 ± 0.19 nM | 23 ± 2 nM | Nc1nc(NCCc2ccco2)nc2sc(-c3ccco3)nc12 [Compound 16, 2-(furan-2-yl)-N^5-(2-(furan-2-yl)ethyl)[1,3]thiazolo[5,4-d]pyrimidin-5,7-diamine]
11 | 0.35 ± 0.04 nM | 141 ± 14% | 0.29 ± 0.03 nM | 71 ± 7% | 4.21 ± 0.32 nM | 2.61 ± 0.22 nM | 0.24 ± 0.01 nM | 174 ± 11 nM | Nc1nc(NCCc2cccnc2)nc2sc(-c3ccco3)nc12 [Compound 17, 2-(furan-2-yl)-N^5-(2-(pyridin-3-yl)ethyl)[1,3]thiazolo[5,4-d]pyrimidin-5,7-diamine]
